In ChEMBL document CHEMBL5604062, “ASAP - ZIKV NS2B-NS3 protease fluorescence dose response” (2024):
Values joined by “and” are separate entries in the source; they are usually repeats but may differ in a detail not shown here. Identical values can stand only once.

Assays:
Nonstructural protein 3 [1] = molecular target: T1, Nonstructural protein 3 (Zika virus, UniProt A0A024AXB9); assay: Functional biochemical assay to identify treatments for viral infectious disease that targets Zika NS2B-NS3 protease. Utilizing a direct enzyme activity measurement method, reading the fluorescence intensity is used to characterize the relative potency of inhibitors as IC50.; design: species or system PRVABC59
Nonstructural protein 3 [2] = molecular target: T1, Nonstructural protein 3; assay: Functional biochemical assay to identify treatments for viral infectious disease that targets Zika NS2B-NS3 protease. Utilizing a direct enzyme activity measurement method, reading the fluorescence intensity is used to characterize the relative potency of inhibitors as IC50. Synthetic construct has been made based on Zika virus (strain PRVABC59) by Centre for Medicines Discovery, University of Oxford, and the assay has been performed by Enamine biological services, Bienta Ltd.The protocol is publicly available: dx.doi.org/10.17504/protocols.io.36wgqn273gk5/v1

T1 sequence (A0A024AXB9 whole entry): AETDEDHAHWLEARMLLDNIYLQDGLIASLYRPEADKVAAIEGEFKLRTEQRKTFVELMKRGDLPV

SMILES	IC50 (Nonstructural protein 3 [1])	IC50 (Nonstructural protein 3 [2])
NC(=O)c1cn(C2CCCC2)nc1NC(=O)c1cccc2c1CC(=O)N2	> 25 µM	> 25 µM
C=C(C)c1ccc(Cl)cc1[C@H](Nc1ccc2c(c1)CNC2)C(=O)NCC(F)F	0.297 µM	0.32 µM and 0.334 µM
O=C1Cc2c(cccc2C(=O)Nc2ccnn2Cc2ccncc2)N1	> 25 µM	> 25 µM
Cc1c(C(=O)Nc2cccc(Cn3cccn3)c2)cc(C2CC2)n1C	> 25 µM	> 25 µM
O=C1Cc2c(cccc2C(=O)Nc2cccc(Cc3nn[nH]n3)c2)N1	> 25 µM	> 25 µM
CS(=O)(=O)c1cncc(-c2cc(F)cc(C(=O)Nc3ccc4c(c3)CNC4)c2)c1	0.088 µM and 0.077 µM	0.158 µM
O=C(NCC(F)F)[C@H](Nc1ccc2c(c1)CNC2)c1cc(Br)ccc1Oc1ccc(Cl)c(Cl)c1	0.212 µM	0.198 µM and 0.238 µM
O=C(Nc1ccc2c(c1)CNC2)c1cc(Cl)cc2[nH]c(-c3cccc(F)c3)nc12	–	4.21 µM
CC(C)n1nncc1-c1cc(F)cc(C(=O)Nc2ccc3c(c2)CNC3)c1	1.87 µM	3.46 µM
Cc1c(C(=O)Nc2ccc3c(c2)C(=O)NC3)cc(C2CC2)n1C	> 25 µM	> 25 µM
CC1(C)NCc2cc(NC(=O)c3cc(F)cc4[nH]ncc34)ccc21	9.19 µM	18.1 µM and > 25 µM
O=C(Nc1cnc2c(c1)CNC2)c1cc(F)cc2[nH]ncc12	0.027 µM and 0.015 µM	0.083 µM
C[C@H]1NCc2cc(NC(=O)c3cc(F)cc4[nH]ncc34)ccc21	0.488 µM	0.646 µM and 1.46 µM
Cn1nc(CNc2cc(-c3cccnc3)ccn2)cc1C1CC1	> 25 µM	> 25 µM
O=C(Nc1ccc2c(c1)CN[C@H]2CC1CC1)c1cc(F)cc2[nH]ncc12	0.192 µM	0.317 µM and 0.284 µM
O=C(NCC(F)F)[C@H](Nc1ccc2c(c1)CNC2)c1cc(Br)cc2cn[nH]c12	0.029 µM and 0.02 µM	0.141 µM and 0.127 µM
O=C1Cc2c(cccc2C(=O)Nc2cccc(-c3cn[nH]c3)c2)N1	> 25 µM	> 25 µM
Cc1c(C(=O)Nc2cccc(-c3nc(C4CC4)no3)c2)cc(C2CC2)n1C	> 25 µM	> 25 µM
CNC(=O)c1cc(Br)cc([C@H](Nc2ccc3c(c2)CNC3)C(=O)NCC(F)F)c1	0.019 µM and < 0.012 µM	0.104 µM and 0.088 µM
O=C(NC1CCOCC1)[C@H](Nc1ccc2c(c1)CNC2)c1cc(Cl)cc(C2CC2)c1	–	1.02 µM and 0.213 µM
CS(=O)(=O)NC(=O)C[C@H]1NCc2cc(NC(=O)c3cc(Cl)cc4[nH]ncc34)ccc21	0.65 µM	2.21 µM and 1.7 µM
CC(=O)N[C@]1(C)C(=O)Nc2cc(F)cc(C(=O)Nc3ccc4c(c3)CNC4)c21	2.38 µM	3.72 µM
N#Cc1cccc(-c2nc3c(C(=O)Nc4ccc(F)cc4)cc(Cl)cc3[nH]2)c1	> 25 µM	> 25 µM

SMILES	IC50 (Nonstructural protein 3 [1])	IC50 (Nonstructural protein 3 [2])
O=C(Nc1cc2c(cn1)CNC2)c1cc(F)cc2[nH]ncc12	0.077 µM and 0.055 µM	0.163 µM
N#Cc1cccc(-c2nc3c(C(=O)Nc4cccnc4)cc(Cl)cc3[nH]2)c1	–	> 25 µM
N#Cc1cccc(-c2nc3c(C(=O)Nc4cccc(F)c4)cc(Cl)cc3[nH]2)c1	> 25 µM	> 25 µM
NCCc1cccc(NC(=O)c2cccc3c2CC(=O)N3)c1	0.333 µM	0.533 µM
O=C1Cc2c(cccc2C(=O)Nc2cc(Br)c3ncnn3c2)N1	> 25 µM	> 25 µM
O=C(NCC(F)F)[C@H](Nc1ccc2c(c1)CNC2)c1cc(Br)cc2nc[nH]c12	0.044 µM and 0.037 µM	0.201 µM
NC(=O)COc1ccc(Br)cc1[C@H](Nc1ccc2c(c1)CNC2)C(=O)NCC(F)F	0.069 µM and 0.055 µM	0.193 µM and 0.233 µM
NCCCn1c(C2CC2)cc(C(=O)Nc2cc([C@H]3CCOC3)ccn2)c1C1CC1	> 25 µM	> 25 µM
O=C1Cc2c(cccc2C(=O)Nc2ccc(N3CCOC3=O)nc2)N1	> 25 µM	> 25 µM
O=C(Nc1ccc2c(c1)CNC2)c1cc(Cl)cc2[nH]c(-c3ccccc3)nc12	–	2.52 µM
CC(=O)N(c1ccc2c(c1)CNC2)[C@]1(c2cc(Cl)cc(C3CC3)c2)CN(C)C1=O	22.7 µM	> 25 µM
O=C(NCC(F)F)[C@H](Nc1ccc2c(n1)CNC2)c1cc(Cl)cc(C2CC2)c1	1.33 µM	5.5 µM
CC(C)CNC(=O)c1cc(Cl)cc2[nH]c(-c3cccc(C#N)c3)nc12	> 25 µM	> 25 µM
O=C(NCC(F)F)[C@H](Nc1ccc2c(c1)CNC2)c1cc(Br)cc2ccccc12	0.099 µM and 0.077 µM	0.143 µM and 0.147 µM
CN(C)C(=O)C[C@H]1NCc2cc(NC(=O)c3cc(Cl)cc4[nH]ncc34)ccc21	0.481 µM	2.12 µM and 2.36 µM
N=C(N)NCCC[C@H](NC(=O)c1nccs1)C(=O)N[C@@H](CCCCN)C(=O)N[C@@H](C(N)=O)c1ccc(OCc2ccc(C(F)(F)F)cc2)cc1	–	6.21 µM and 4.39 µM and 8.31 µM and 7.7 µM and 6.31 µM and 6.15 µM and 5.91 µM and 5.86 µM and 5.59 µM
N#Cc1cccc(-c2nc3c(C(=O)NCc4ccccn4)cc(Cl)cc3[nH]2)c1	–	> 25 µM
N#Cc1cccc(-c2nc3c(C(=O)NCc4ccccc4)cc(Cl)cc3[nH]2)c1	–	> 25 µM
N#Cc1cccc(-c2nc3c(C(=O)Nc4ccncc4)cc(Cl)cc3[nH]2)c1	–	> 25 µM
N#Cc1cccc(-c2nc3c(C(=O)NCc4cccnc4)cc(Cl)cc3[nH]2)c1	–	> 25 µM
C=CC[C@H]1NCc2cc(N[C@H](C(=O)NC(C)C)c3cc(Cl)cc4[nH]ncc34)ccc21	0.994 µM	–
O=c1[nH]ncn1C1CCN(Cc2c[nH]c3ccccc23)CC1	34.1 µM	–
NCc1cccc(NC(=O)c2cccc3c2O[C@H](c2ccccc2)C(=O)N3)c1	56.4 µM	–

SMILES	IC50 (Nonstructural protein 3 [1])	IC50 (Nonstructural protein 3 [2])
c1csc(CSc2nnc(Cn3cncn3)o2)c1	> 99.5 µM	–
O=C(Nc1ccc2c(c1)CNC2)c1ccnc(CO)c1	> 99.5 µM	–
CCCC[C@@H](NC(=O)OC(C)(C)C)C(=O)N[C@@H](C(=O)NCc1ccc(CN)cc1)c1ccc(OCc2ccccc2)cc1	25.6 µM	–
COc1ccccc1-c1ccc([C@@H](NC(=O)OCc2ccccc2)C(=O)Nc2cccc(CN)c2)cc1	27.2 µM	–
Cc1cc(C(=O)N[C@@H]2CC[C@@H]3CN(C)C[C@@H]32)sc1C=O	> 99.5 µM	–
Cn1cnc2c1CN(Cc1ccc3c(c1)CCNCC3)CC2	> 99.5 µM	–
O=C(O)c1cc(Cl)ccc1NS(=O)(=O)c1ccc(OCc2ccccn2)cc1	> 99.5 µM	–
Cc1cc(=O)c(C(=O)Nc2cccc(CN)c2)nn1-c1ccccc1C(F)(F)F	> 99.5 µM	–
c1ccc(COc2ccc3[nH]cc(CN4CCC(c5cscn5)CC4)c3c2)cc1	> 99.5 µM	–
NCc1cc(S(=O)(=O)Nc2ccc(Cl)cc2C(=O)O)ccc1Oc1ccccc1	> 99.5 µM	–
COc1cnccc1NC(=O)c1cccn(CC(C)C)c1=O	> 99.5 µM	–
O=C(Nc1cc(Cl)cc(C(=O)NC[C@H]2CC3(CNC3)CO2)c1)OCc1ccccc1	46.1 µM	–
Cc1c(F)cc(C(=O)Nc2cccc(CN)c2)c(F)c1NC(=O)OCc1ccccc1	63.9 µM	–
NCc1cccc(NC(=O)[C@H](NC(=O)OCc2ccccc2)c2cccc(OCC3CCOCC3)c2)c1	> 99.5 µM	–
CC(C)c1nccn1C[C@H]1CCCN1C(=O)Nc1ccc2c(c1)CNC2	> 25 µM	–
CCn1nc(C)c(CN(C)Cc2ccc3c(c2)CCNCC3)c1C	> 99.5 µM	–
O=C(Nc1ccc2c(c1)CNC2)c1cc(F)cc(C=C2CCS(=O)(=O)CC2)c1	0.645 µM	–
CC(C)Oc1ccc(Cl)cc1[C@H](Nc1ccc2c(c1)CNC2)C(=O)NCC(F)F	0.106 µM	–
CN(C(=O)OCc1ccccc1)[C@H](C(=O)Nc1cccc(CN)c1)c1ccc(OCc2ccccc2)cc1	23.3 µM	–
C#Cc1cc(Cl)cc(C(=O)Nc2ccc3c(c2)CNC3)c1	0.268 µM	–
CC(=Cc1cccc(CN)c1)c1cc(Cl)cc(NC(=O)OCc2ccccc2)c1	8.13 µM	–
Clc1ccc2[nH]ncc2c1[C@@H]1C[C@H]1c1ccc2c(c1)CNC2	22.4 µM	–
O=C1CN(C(=O)Nc2ccc3c(c2)CNC3)[C@H]2CCCC[C@H]2N1	> 25 µM	–

SMILES	IC50 (Nonstructural protein 3 [1])	IC50 (Nonstructural protein 3 [2])
N[C@H]1CC[C@H](CNC(=O)[C@@H](NC(=O)OCc2ccccc2)c2ccc(OCc3ccccc3)cc2)CC1	> 99.5 µM	–
O=C(Nc1cc(Cl)cc(C(=O)Nc2ccc3c(c2)CNCC3)c1)OCc1ccccc1	3.4 µM	–
Cn1nc(C(=O)Nc2ccc3c(c2)CNC3)c2cc(Br)ccc21	6.63 µM	–
N#Cc1cc2c(cc1NC(=O)c1cc(F)cc3[nH]ncc13)CNC2	16 nM (2×) and < 12 nM	–
O=C1Cc2c(cccc2C(=O)N[C@H]2C[C@H](OC(F)F)C2)N1	> 25 µM	–
NCc1cccc(NC(=O)[C@@H]2CCCCN2)c1	> 99.5 µM	–
O=C(O)c1cc2cc(-c3cc(Cl)cc4ncccc34)ccc2[nH]1	40.3 µM	–
O=C(Nc1cc(-c2cccnc2)ccn1)c1cc(C2CC2)[nH]n1	> 25 µM	–
CCn1cc(-c2cccc(-c3ccccc3)c2)nc(N2CC[C@@H](CO)C2)c1=O	> 99.5 µM	–
NCc1cccc(NC(=O)[C@H](NS(=O)(=O)c2cccc(Cl)c2)c2ccc(OCc3ccccc3)cc2)c1	57.2 µM	–
Cc1[nH]c2ccccc2c1[C@H]1CCN(C(=O)Nc2ccc3c(c2)CNC3)C1	> 25 µM	–
CN(C)[C@@H]1CCC[C@H](C(=O)Nc2cccc(CN)c2)C1	> 99.5 µM	–
Cc1[nH]nc2c1CC[C@H](NC(=O)c1cccc3c1CC(=O)N3)C2	> 25 µM	–
O=C1Cc2c(cc(F)cc2C(=O)Nc2cc([C@H]3CCOC3)ccn2)N1	> 25 µM	–
O=C(Nc1ccc2c(c1)CNC2)c1ncnc2[nH]ccc12	> 25 µM	–
Cc1c(C(=O)Nc2cc(F)cc(CN)c2)cc(C2CC2)n1C	89.9 µM	–
Cn1cncc1COc1cccc([C@H](NC(=O)OCc2ccccc2)C(=O)Nc2cccc(CN)c2)c1	32.6 µM	–
CCc1[nH]c(-c2ccccc2)cc1C(=O)Nc1cccc(-c2nnn[nH]2)c1	> 99.5 µM	–
N#Cc1cc(Cl)cc(C(=O)Nc2ccc3c(c2)CNC3)c1	0.276 µM	–
CN(C)Cc1ccc(CNC(=O)[C@@H](NC(=O)OCc2ccccc2)c2ccc(OCc3ccccc3)cc2)cc1	> 99.5 µM	–
O=C(Nc1cc(-c2cccnc2)ccn1)c1cnn2c1CCCC2	8.03 µM	–
Cc1ncccc1-c1ccc([C@@H](NC(=O)OCc2ccccc2)C(=O)Nc2cccc(CN)c2)cc1	98.1 µM	–
NCc1cccc(N[C@H](C#CCO)c2cc(Cl)cc(NC(=O)OCc3ccccc3)c2)c1	17.7 µM	–
